The values below come from patent US12180252B2, “Peptide derived from PEP27 peptide and uses thereof” (priority 2021, dated 2024).

Series [1] has as its system E. coli ATCC 25922. Briefly: Cytoplasmic membrane depolarization (DiSC3-5). Format: cell-based, Escherichia coli. To be noted: 4×MIC. Here is the method: We also used E. coli cells and the membrane potential-sensitive cyanine dye 3,3′-dipropylthiadicarbocyanine iodide (DiSC3-5) to test the ability of PEP27 and PEP27-2 to depolarize Gram-negative bacterial membranes (FIG. 15B to FIG. 15E).
Depolarization of the cytoplasmic membrane by the peptides was measured using the membrane potential-sensitive dye DiSC3-5 (Merck KGaA, n=4 per condition) with intact E. coli cells as previously described. 66 Mid-log-phase E. coli ATCC 25922 cells were washed with 5 mM HEPES buffer containing 20 mM glucose and resuspended to an OD600 of 0.05 in 5 mM HEPES buffer containing 20 mM glucose and 0.1 M KCl. The cell suspension was incubated with 1 μM DiSC3-5 for 1 h. […] Fluorescence was measured at excitation and emission wavelengths of 622 and 670 nm, respectively.
When the bacterial cytoplasmic membrane is disrupted, the membrane potential dissipates E. coli, and DiSC3-5 is released into the culture medium, resulting in a fluorescence increase. After stabilization for 10 min by treatment with DiSC3-5, AMPs were added, and the plasma membrane potential of E. coli was confirmed by monitoring the change in fluorescence intensity for another 30 min.

A short description of series [2]: Calcein release from LUVs. The settings on record: P/L ratio of 0.05. Here is the method:
To examine the mechanism of action of PEP27 and PEP27-2, we evaluated the changes in bacterial cell membrane permeability by monitoring the release of calcein, a fluorescent marker, from calcein entrapped LUVs with different lipid bilayer compositions.
Peptide-induced membrane permeabilization was quantified by monitoring calcein release from LUVs (n=3 per condition). Different calcein-entrapped LUVs [PE/PG (7/3) or PC/CH/SM (1/1/1)] were prepared as described above, except that the dry lipid films were resuspended in 1 mL of PBS (pH 7.2) containing 70 mM calcein. Gel filtration chromatography on a Sephadex G-50 column was performed to separate free calcein from that entrapped in LUVs. Thereafter, the LUVs with entrapped calcein were mixed with peptides at various ratios, and the fluorescence of the released calcein was measured with a SpectraMax M3 Multi-Mode Microplate Reader (Molecular Devices, Sunnyvale, CA, USA) at excitation and emission wavelengths of 480 and 520 nm, respectively.

Series [3] concerns E. coli. Briefly: Flow cytometry, propidium iodide staining. The class given is cell-based, Escherichia coli. The settings on record: E. coli, flow cytometry. Here is the method:
In order to confirm whether the peptide prepared by the method of above 1 acts on the bacterial membrane, PEP27-2 peptide having better antimicrobial activity than the parental peptide was analyzed through flow cytometry.
Thereafter, the supernatant was removed using a centrifuge (10,000 rpm) and stained with propidium iodide (PI) at a concentration of 10 μg/ml at 4° C. for 30 minutes. Then, the unbound propidium iodide (PI) was removed using the centrifuge, and 1 ml of physiological saline (PBS) was added to remove agglomeration of the cells. Thereafter, effects of the peptide on the bacterial membrane were determined using a Bechman flow cytometer.
In general terms: In flow cytometry, cells or beads pass a laser one at a time.

The test system of series [4] is plasmid DNA (pRSETB). Put plainly: Peptide-DNA binding by agarose gel electrophoresis. To be noted: peptide/DNA ratios 0.25:1 to 4:1, 300 ng plasmid DNA. Here is the method:
Specifically, 300 ng of plasmid DNA (pRSETB) was reacted with the peptide by a relative ratio (reactions were performed at peptide/DNA ratios of DNA alone, 0.25:1, 0.5:1, 1:1, 1.5:1, 2:1, 3:1, 4:1, respectively) at 37° C. for 10 minutes, followed by conducting electrophoresis on a 1% agarose gel, staining the same with ethidium bromide (EtBr) and monitoring through UV.

Series [5] concerns E. coli ATCC25922. Format: cell-based, Escherichia coli. To be noted: ATCC25922, 18 h.
The subject of series [6] is E. coli CCARM1229. Format: cell-based, Escherichia coli. To be noted: E. coli CCARM1229, antibiotics-tolerant; 37° C., 18 hours.
The test system of series [7] is P. aeruginosa ATCC27853. Put plainly: microbe, parasite or virus in culture. To be noted: ATCC27853, 18 h. Summed up: (§1)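 Peptide growth inhibition measured by twofold dilution against mid-log bacteria (2×10^4 cells/100 μl), 37° C, 18 hours; endpoint was absence of cell division. Meropenem, ceftazidime, ceftriaxone and vancomycin were run in parallel.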
Series [8] concerns S. aureus ATCC25923. Put plainly: microbe, parasite or virus in culture. To be noted: ATCC25923, 18 h. Put shortly:
as §1

Series [9] relates to S. aureus ATCC29213. Briefly: microbe, parasite or virus in culture. The settings on record: ATCC29213, 18 h. Summed up:
as §1

Series [10] relates to S. aureus MW2. Put plainly: microbe, parasite or virus in culture. The settings on record: S. aureus MW2, antibiotics-tolerant; 37° C., 18 hours. Summed up:
as §1

Series [11] has as its system S. aureus USA300. Put plainly: microbe, parasite or virus in culture. The settings on record: S. aureus USA300, antibiotics-tolerant; 37° C., 18 hours. Summed up: as §1
In series [12] the test system is E. coli ATCC 25922. Put plainly: Time-kill kinetics. The settings on record: at MIC, after 20 min of treatment. Format: cell-based, Escherichia coli. Here is the method:
(§2) Time-killing kinetics were analyzed for E. coli ATCC 25922 and S. aureus ATCC 25923 in the presence of PEP27-2 at their respective MICs. The bacterial cells were cultured overnight until they reached the exponential growth phase; they were then incubated at 37° C. for an additional 10 min from 0 min to 1 h. The total bacterial population was then stained with QUANTOM total cell staining dye, after which the stained cells were mixed with QUANTOM cell loading buffer and loaded into QUANTOM M50 Slides. The slides were centrifuged using the QUANTOM centrifuge to evenly distribute them throughout the counting chamber and ensure accurate cell counts. Intracellular fluorescence was detected using the QUANTOM Tx microbial cell counter, which captures and counts cells automatically (Logos Biosystems, Gyeonggi-do, South Korea).

Series [13] deals with S. aureus ATCC 25923. Put plainly: Time-kill kinetics. The class given is cell-based, Staphylococcus aureus. The settings on record: at MIC, after 20 min of treatment. Here is the method:
as §2

Each structure is given as a SMILES string. Converted amounts (≈) assume the structure as drawn. “And” between values parts separate entries of the source, which are not always exact repeats. Equal values may be shown once. Where a SMILES comes first, the peptide text is derived from it.

On to `CC[C@H](C)[C@H](NC(=O)CN)C(=O)NCC(=O)N[C@@H](C)C(=O)N[C@H](C(=O)N[C@@H](CC(C)C)C(=O)N[C@@H](CCCCN)C(=O)N[C@H](C(=O)N[C@@H](CC(C)C)C(=O)N[C@H](C(=O)N[C@H](C(=O)NCC(=O)N[C@@H](CC(C)C)C(=O)N1CCC[C@H]1C(=O)N[C@@H](C)C(=O)N[C@@H](CC(C)C)C(=O)N[C@H](C(=O)N[C@@H](CO)C(=O)N[C@@H](Cc1c[nH]c2ccccc12)C(=O)N[C@H](C(=O)N[C@@H](CCCCN)C(=O)N[C@@H](CCCNC(=N)N)C(=O)N[C@@H](CCCCN)C(=O)N[C@@H](CCCNC(=N)N)C(=O)N[C@@H](CCC(N)=O)C(=O)N[C@@H](CCC(N)=O)C(N)=O)[C@@H](C)CC)[C@@H](C)CC)[C@@H](C)O)[C@@H](C)O)C(C)C)C(C)C` [Melittin, reference compound], for which the “DiSC3-5 fluorescence intensity (membrane depolarization)” value in series [1] was approximately 140. For the same compound, the maximum calcein leakage in series [2] is 100%. Besides, the “bacterial membrane destruction” value in [3] is reported as “found to have cell membrane destruction ability”. For the same compound, the “binding to DNA (gel electrophoresis)” value in series [4] was “not bound to any DNA”.

As to `CSCC[C@H](N)C(=O)N[C@@H](Cc1c[nH]c2ccccc12)C(=O)N[C@@H](CCCCN)C(=O)N[C@@H](Cc1c[nH]c2ccccc12)C(=O)N[C@@H](Cc1ccccc1)C(=O)N[C@@H](Cc1c[nH]cn1)C(=O)N[C@@H](CC(N)=O)C(=O)N[C@H](C(=O)N[C@@H](CC(C)C)C(=O)N[C@@H](CO)C(=O)N[C@@H](Cc1c[nH]c2ccccc12)C(=O)NCC(=O)N[C@@H](Cc1c[nH]c2ccccc12)C(=O)N[C@@H](CC(C)C)C(=O)N[C@@H](CC(C)C)C(=O)N[C@@H](C)C(=O)N[C@@H](CC(=O)O)C(=O)N[C@@H](CCCCN)C(=O)N[C@@H](CCCNC(=N)N)C(=O)N1CCC[C@H]1C(=O)N[C@@H](C)C(=O)N[C@@H](CCCNC(=N)N)C(=O)N[C@@H](CC(=O)O)C(=O)N[C@@H](Cc1ccc(O)cc1)C(=O)N[C@@H](CC(N)=O)C(=O)N[C@@H](CCCNC(=N)N)C(=O)N[C@@H](CCCCN)C(N)=O)C(C)C` [PEP27-2] (H-MWKWFHNVLSWGWLLADKRPARDYNRK-NH2), the Minimal inhibitory concentration in [5] is 4 µM (≈ 13.9 µg/mL); in series [6] it was 4 µM (≈ 13.9 µg/mL); in series [7] it was 4 µM (≈ 13.9 µg/mL); in [8], 2 µM (≈ 6.95 µg/mL); in [9], 2 µM (≈ 6.95 µg/mL); in [10], 3 µM and 4 µM. Moreover, the Minimal inhibitory concentration in series [11] came out at 2 µM (≈ 6.95 µg/mL). Also, the “decrease in E. coli cell viability” value in [12] was 98.63%. Besides, in series [13], the “decrease in S. aureus cell viability” value turned out to be 97.48%.
